Test results from patent US20230028441A1, “NOVEL HETEROARYL-TRIAZOLE COMPOUNDS AS PESTICIDES” (Bayer Aktiengesellschaft, priority 2019, published 2023).
Like-named read-outs stand apart in the source and are kept apart here.

Tests used:
Assay type in all cases: in vivo
[1] = system: fall armyworm larvae (Spodoptera frugiperda); experiment: Spodoptera frugiperda spray test (maize leaf sections); details: 168 h
Outline: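 Percent kill of Spodoptera frugiperda larvae was recorded 7 days after infesting dried, treated maize leaf sections. Spray solutions were made from an acetone/DMF compound preparation diluted with 1000 ppm emulsifier-containing water.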

[2] = system: cattle tick larvae (Rhipicephalus microplus), strain Parkhurst, resistant against synthetic pyrethroids; experiment: Rhipicephalus (Boophilus) microplus in-vitro contact test, larval cattle tick; details: read-out: efficacy (larvae dead or moribund)
Outline: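 Efficacy, 100% meaning all larvae dead or moribund, was judged at 48 h from loss of negative geotactic climbing. Larvae of the Parkhurst strain, 20–50 per tube, were exposed at 27° C and 85% humidity to acetone-coated tube surfaces; 900 ppm corresponded to 5 μg/cm^2.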

[3] = system: adult unfed cat fleas (Ctenocephalides felis); experiment: Ctenocephalides felis oral test; details: 48 h
Outline: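 Percent flea mortality recorded at 2 days. Compound was dissolved in dimethyl sulfoxide and diluted into cattle blood, which ~20 unfed adult cat fleas ingested through parafilm from a 37°C-heated chamber, their own chamber kept at room temperature.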

[4] = system: caterpillars of the fall army worm (Spodoptera frugiperda); experiment: Spodoptera frugiperda spray test (cotton leaves); details: 168 h
Experimental: Solvent: 14 parts by weight of dimethylformamide
Emulsifier: alkylaryl polyglycol ether
To produce a suitable preparation of active compound, 1 part by weight of active compound is mixed with the stated amount of solvent and is diluted with water, containing an emulsifier concentration of 1000 ppm, to the desired concentration. Further test concentrations are prepared by dilution with emulsifier containing water. Ammonium salt and/or penetration enhancer in a dosage of 1000 ppm are added to the desired concentration if necessary.
Cotton leaves (Gossypium hirsutum) are treated by being sprayed with the preparation of the active compound of the desired concentration and are infested with caterpillars of the fall army worm (Spodoptera frugiperda).
After 7 days mortality in % is determined. 100% means all the caterpillars have been killed and 0% means none of the caterpillars have been killed.

[5] = system: larvae of the banded cucumber beetle (Diabrotica balteata); experiment: Diabrotica balteata spray test; details: 168 h, read-out: efficacy (seedlings grown up)
Outline: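 Efficacy (%) read at day 7: 100% means seedlings grew like untreated, uninfested controls; 0% means no seedlings grew. Wheat seeds germinated 1 day on agar, sprayed with emulsified compound solution (1000 ppm emulsifier in water), then each well infested with 10-20 larvae.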

[6] = system: adult engorged female ticks (Rhipicephalus microplus); experiment: Rhipicephalus (Boophilus) microplus injection test; details: 168 h, read-out: efficacy (infertile eggs)
Outline: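 Efficacy is the share of infertile eggs: 100% means none are fertile, 0% means all are fertile. Egg deposition was checked 7 days after injecting 1 μL of DMSO-diluted compound into the abdomen of five engorged female R. microplus, with doubtful eggs kept about 42 days to hatching. The stock was 10 mg in 0.5 mL DMSO.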

[7] = system: green peach aphid (Myzus persicae); experiment: Myzus persicae oral test; details: 120 h
Outline: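 Readout: % mortality at day 5, where 100% = all aphids dead and 0% = none dead. Feeding via parafilm membrane over compound in IPL41 medium (33%+15% sugar); mixed-age population. Stock in acetone (1:100 w/w), water-diluted.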

[8] = system: adult brown dog ticks (Rhipicephalus sanguineus); experiment: Rhipicephalus sanguineus in-vitro contact test with adult brown dog ticks; details: after 48 hours, read-out: efficacy (ticks dead or moribund); for pest or weed control at 5 µg/cm2, 500 g/ha: 5 μg/cm^2 (=500 g/ha); for pest or weed control at 1 µg/cm2, 100 g/ha: 1 μg/cm^2 (=100 g/ha)
Outline: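 Efficacy is the percentage of adult ticks dead or moribund, meaning immotile or uncoordinated and unable to escape 45-50° C. heat within 5 min. Read 48 h after 5-10 ticks were enclosed at room temperature in acetone-coated glass tubes. Dose 5 μg/cm^2, from a 900 ppm coating solution.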

[9] = system: larvae of the southern green stink bug (Nezara viridula); experiment: Nezara viridula spray test; details: in Hordeum vulgare, 96 h
Outline: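 Percent mortality of southern green stink bug larvae read 4 days after spraying infested Hordeum vulgare. Test solutions: compound in acetone plus dimethylformamide, diluted with emulsifier-containing water (1000 ppm alkylarylpolyglycol ether).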

[10] = system: green peach aphid (Myzus persicae); experiment: Myzus persicae spray test; details: foliar, 120 h, 100 g/ha, after 5 days, Chinese cabbage leaf disks
Experimental: Solvent: 78.0 parts by weight acetone • 1.5 parts by weight dimethylformamide
Emulsifier: alkylarylpolyglycol ether
To produce a suitable preparation of active compound, 1 part by weight of active compound is mixed with the stated amount of solvents and is diluted with water, containing an emulsifier concentration of 1000 ppm, to the desired concentration. Further test concentrations are prepared by dilution with emulsifier containing water.
Chinese cabbage (Brassica pekinensis) leaf disks infected with all instars of the green peach aphid (Myzus persicae), are sprayed with a preparation of the active ingredient of the desired concentration.
After 5 days mortality in % is determined. 100% means all aphids have been killed and 0% means none of the aphids have been killed.

[11] = system: brown planthopper (Nilaparvata lugens); experiment: Nilaparvata lugens spray test; details: in Oryza sativa, 96 h
Outline: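 Rice plants (Oryza sativa) sprayed with compound in acetone/DMF diluted in water containing 1000 ppm alkylarylpolyglycol ether emulsifier, then infested with planthoppers. Mortality % scored after 4 days (100% = all killed, 0% = none killed).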

[12] = system: adult cat fleas (Ctenocephalides felis); experiment: Ctenocephalides felis in-vitro contact test, adult cat flea; details: 5 μg/cm^2 (=500 g/ha), after 48 hours, read-out: efficacy (fleas dead or moribund)
Outline: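 Efficacy (%) counts fleas that are dead or moribund, meaning unable to escape heat (45-50 °C, ≤5 min) by climbing. Scoring was done 48 h after 5-10 adults were placed at room temperature in glass tubes. The tubes carried a dried acetone film of compound, 5 μg/cm^2 at 900 ppm.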

[13] = 5 μg/cm^2 (=500 g/ha), after 48 hours
[14] = 100 ppm in cattle blood, after 2 days
[15] = 100 g/ha (=32 μg/well), after 7 days, wheat seeds
[16] = 500 g/ha (=160 μg/well), after 7 days, wheat seeds
[17] = 4 μg/animal, egg deposition after 7 days
[18] = 20 μg/animal, egg deposition after 7 days

| SMILES | mortality at 100 g/ha [1] | mortality at 500 g/ha [1] | pest or weed control at 5 µg/cm2 [2, 13] | mortality at 100 ppm [3, 14] | mortality at 20 ppm [4] | pest or weed control at 32 µg/disc, 100 g/ha [5, 15] | pest or weed control at 0.004 mg [6, 17] | pest or weed control at 0.02 mg [6, 18] | mortality at 4 ppm [7] | pest or weed control at 5 µg/cm2, 500 g/ha [8] | mortality at 500 g/ha [9] | further results |
| --- | --- | --- | --- | --- | --- | --- | --- | --- | --- | --- | --- | --- |
| CC(=O)Nc1nc(C(C)NC(=O)c2cc(Cl)cc(C(F)(F)F)c2)n(-c2ccc(Cl)cn2)n1 (racemic) [I-011, N-[1-[5-acetamido-2-(5-chloro-2-pyridyl)-1,2,4-triazol-3-yl]ethyl]-3-chloro-5-(trifluoromethyl)benzamide] | 100% | 100% | 100% | 100% | 100% | 100% | 100% | 100% | 100% | 80% | 90% | pest or weed control at 160 µg/disc, 500 g/ha [5, 16]: 100% |
| CNc1nc([C@H](C)NC(=O)c2cc(Br)cc(OC(F)(F)F)c2)n(-c2ccc(C#N)cn2)n1 [I-142] | 100% |  |  |  | 100% | 100% |  |  |  |  | 100% |  |
| COC(=O)Nc1nc(C(C)NC(=O)c2cc(Cl)cc(C(F)(F)F)c2)n(-c2ccc(Cl)cn2)n1 (racemic) [I-010, methyl N-[1-(5-chloro-2-pyridyl)-5-[1-[[3-chloro-5-(trifluoromethyl)benzoyl]amino]ethyl]-1,2,4-triazol-3-yl]carbamate] | 100% | 100% |  |  | 80% |  |  |  | 90% | 100% |  | pest or weed control at 5 µg/cm2 ([2]; 48 h): 100%; mortality at 100 ppm [3]: 100%; pest or weed control at 32 µg/disc, 100 g/ha [5]: 100%; pest or weed control at 160 µg/disc, 500 g/ha [5]: 100%; pest or weed control at 0.004 mg [6]: 100%; pest or weed control at 0.02 mg [6]: 100%; pest or weed control at 1 µg/cm2, 100 g/ha [8]: 100% |
| CC(NC(=O)c1cc(Cl)cc(C(F)(F)F)c1)c1nc(CS(C)(=O)=O)nn1-c1ccc(Cl)cn1 (stereo not drawn) [I-029] | 100% | 100% |  | 100% | 100% |  | 100% | 100% |  |  |  |  |
| CC(NC(=O)c1cc(Cl)cc(C(F)(F)F)c1)c1nc(NC(=O)C2CC2)nn1-c1ccc(Cl)cn1 (stereo not drawn) [I-015] | 100% | 100% |  | 100% | 100% |  | 100% | 100% |  |  |  |  |
| C[C@H](NC(=O)c1cc(C(F)(F)F)cc(C(F)(F)F)c1)c1nc(N)nn1-c1ncccn1 [I-134, N-[(1S)-1-(5-amino-2-pyrimidin-2-yl-1,2,4-triazol-3-yl)ethyl]-3,5-bis(trifluoromethyl) benzamide] | 100% |  | 100% |  |  | 100% |  |  |  | 100% | 100% | mortality at 100 g/ha [10]: 100%; pest or weed control at 1 µg/cm2, 100 g/ha [8]: 100%; mortality at 500 g/ha [11]: 100%; pest or weed control at 5 µg/cm2 [12]: 100% |
| CC(NC(=O)c1cc(Br)cc(Br)c1)c1nc(N)nn1-c1ccc(C#N)cn1 (stereo not drawn) [I-114] | 100% |  | 100% |  | 100% | 100% |  |  | 90% |  |  |  |
| CC(NC(=O)c1cc(Br)cc(C(F)(F)F)c1)c1nc(N)nn1-c1ccc(C#N)cn1 (stereo not drawn) [I-117] | 100% |  | 100% | 100% | 100% | 100% | 100% |  | 100% |  | 100% |  |
| CNc1nc([C@H](C)NC(=O)c2cc(C(F)(F)F)cc(C(F)(F)F)c2)n(-c2ncccn2)n1 [I-127, N-[(1S)-1-[5-(methylamino)-2-pyrimidin-2-yl-1,2,4-triazol-3-yl]ethyl]-3,5-bis(trifluoromethyl)benzamide] | 100% |  | 100% |  |  | 100% |  |  |  | 100% | 100% | mortality at 100 g/ha [10]: 90%; pest or weed control at 1 µg/cm2, 100 g/ha [8]: 100%; mortality at 500 g/ha [11]: 90%; pest or weed control at 5 µg/cm2 [12]: 100% |
| CNc1nc([C@H](C)NC(=O)c2cc(Br)cc(Br)c2)n(-c2ccc(C#N)cn2)n1 [I-143] | 100% |  |  |  | 100% | 100% |  |  |  |  | 100% |  |
| CC(NC(=O)c1cc(Cl)cc(C(F)(F)F)c1)c1nc(S(C)(=O)=O)nn1-c1ccc(Cl)cn1 (stereo not drawn) [I-063] | 100% | 100% |  |  | 100% | 100% | 100% | 100% | 100% |  | 100% | pest or weed control at 160 µg/disc, 500 g/ha [5, 16]: 100% |
